In one data set the test system is primary human T cells. The experiment in a line: Con A-induced cell proliferation of primary human T cells. The data set is classed as cell-based. The conditions noted are these: FIG. 6, read-out: IC50 for inhibition of Con A-induced cell proliferation.
In data set [1] the target is T1, hOrail/hSTIM1 (Homo sapiens, UniProt Q96D31).
T1 construct: expressed in transfected cells
The experiment in a line: Monster ICRAC in cells stably overexpressing hOrail/hSTIM1. The data set is classed as cell-based. Particulars: FIG. 15.

In another data set the test system is SOCE in rat T cells. The experiment in a line: SOCE in rat T cells. The data set is classed as cell-based. Particulars: T-cell, FIG. 5, read-out: IC50 for inhibition of SOCE.
Data set [2] can be described thus: Rat collagen induced arthritis (CIA) model, liver weight. In kind it is in vivo. The conditions noted are these: given orally, FIG. 11.
Procedure: 40 rats are injected with collagen to get 40 solid responders on days 10,11 for 4 groups of 10. Four nonimmunized animals serve as normal controls.
Collagen is prepared by making a 4 mg/ml solution in 0.01N Acetic acid. Equal volumes of collagen and Freund's incomplete adjuvant, are emulsified by hand mixing until a bead of this material holds its form when placed in water.
Animals (10 rats/group for arthritis, 4 rats/group for normal control).
Animals in groups 2-5 are anesthetized with isoflurane and given collagen injections (DO); each animal gets 300 μl of the mixture spread over 3 subcutaneous sites on the back. On Day 6 (D6) the animals are anesthetized again and given a second collagen injection, as before.
Rats are weighed on Days 0, 3, 6, and 9-17 of arthritis, and caliper measurements of ankles taken every day beginning on Day 9. Final body weights are taken on Day 17 of arthritis. On Day 17, all animals are anesthetized for terminal blood draw and then euthanized. Subsequently, hind paws and knees are removed, the hind paws are weighed and then (with knees) placed in formalin for processing for microscopy. Livers, spleen and thymus and kidneys are also removed, trimmed of extraneous tissue and weighed. Kidneys are retained in formalin for histopathology.
Sampling will occur over 1 day and involves groups 2-5 with samples retained from all groups.
A further data set has as its system SOCE. The data set can be described thus: Selectivity profile. Particulars: FIG. 8.
The subject of data set [3] is store-operated calcium entry in RBL-2H3 cells. The experiment in a line: Fluorescence (FLUO-4/FLIPR384) store-operated calcium entry screening assay. The data set is classed as cell-based, rat. How it is done:
Fluorescence-based assays were used for screening the compounds described herein, such as compounds of Formula (I) and Formula (II), which modulate intracellular calcium.
RBL-2H3 cells plated in 384-well plates were loaded for 45 min with FLUO-4-AM (2 μM final concentration) in HBSS. Cells were washed and placed in a nominally Ca^2+- and Mg^2+-free Hanks solution. One minute later, a test agent or vehicle was added. After a 15 minute incubation period, 1 μM thapsigargin (Tg) was added to inhibit the ER Ca^2+ pump and discharge intracellular Ca^2+ stores. Fifteen minutes after addition of Tg, store-operated calcium entry was initiated by adding external Ca^2+ to a final concentration of 1.8 mM and the cells monitored for a further 10-15 minutes. Calcium levels were monitored throughout the assay using a FLIPR^384 (Molecular Devices fluorimetric imaging plate reader for high throughput screening).
A similar screening assay procedure was used with HEK293 and RBL-2H3 cells.
The kinetic data from the FLIPR^384 were analyzed and then stored in a relational database (ActivityBase; IDBS). Ten quantitative parameters were calculated that define various aspects of the store-operated calcium entry response. These parameters are as follows:
Up slope: linear regression of the increase in RFU from 2 to 30 sec after addition of Ca^2+.
Combinations of these parameters were used to characterize the compounds of Formula (I). Compounds were retested under identical conditions to confirm their activity. Compounds with confirmed activity were then analyzed for concentration-dependent effects, and subsequently, those compounds displaying concentration-dependent effects were categorized as compounds that modulate intracellular calcium.

Data set [4] is described as follows: DNBS-induced colitis in rats (ulcerative colitis model for IBD). In kind it is in vivo, rat. Particulars: FIG. 20. As to the method:
Procedure: Male Wistar rats weighing 200±20 g are fasted for 24 hours prior to use. Distal colitis is induced by intra-colonic instillation of DNBS (2,4-dinotrobenzene sulfonic acid, 20 mg in 0.5 ml ethanol 30%) with a catheter of 12 cm in length, followed by gentle injection of air (2 ml) through the catheter to ensure that the solution remain in the colon. The animals are divided into groups of 5 each. Test substance and vehicle are administered either daily or twice daily by appropriate route of administration 24 hour and 1 hour before DNBS instillation and then for 6 consecutive days thereafter. One normal control group is treated with 0.9% NaCl alone without DNBS challenge. […] During the experiment, body weight, fecal occult blood and stool consistency are monitored daily. Furthermore, when the abdominal cavity is opened before removal of the colon, adhesions between the colon and other organs are noted as is the presence of colonic ulceration after removal and weighing of each colon (a macroscopic damage score is recorded according to established score criteria). The colon-to-body weight ratio is calculated according to the formula: Colon (g)/BW×100. The “Net” increase in ratio of Vehicle-control+DNBS group relative to Vehicle-control group is used as a base for comparison with individual treated groups and expressed as “Dec. […]

In data set [5] the target is T1, hOrail/hSTIM1. The experiment in a line: Recombinant hOrail/hSTIM1-dependent Ca2+ entry in stable cells. In kind it is cell-based. The conditions noted are these: FIG. 14.
Data set [6] deals with RBL-2H3 cells. The experiment in a line: Degranulation (β-hexosaminidase release) assay. In kind it is cell-based. The conditions noted are these: Rattus norvegicus. As to the method: (§1) To assess degranulation and cytokine release, RBL-2H3 cells were plated and stimulated with 20 nM thapsigargin/20 nM TPA for 20 hr in the presence or absence of compound of Formula (I) or Formula (II). Media was collected and assayed for the release of β-hexosaminidase or for the release of the inflammatory mediator cytokine TNF-α. The β-hexosaminidase enzymatic assay was performed by adding 200 μL 1 mM p-nitrophenyl-acetyl-glucosamide substrate (Sigma #N9376) in 0.05M Na Citrate (pH 4.5) to 50 μL of conditioned medium, incubating for 60 min at 37° C., then adding 500 μL 0.05M Na carbonate, 0.05M Na bicarbonate pH 10.5, mixing thoroughly, and reading the absorbance at 405 nm in a BioRad plate reader. The TNF-α release assay was performed using the Rat Tumor Necrosis Factor-a Ultrasensitive ELISA Kit from BioSource.

A short description of data set [7]: Skin transplant rejection in Lewis rats. The data set is classed as in vivo, rat. Particulars: FIG. 18.
In a further data set the test system is rat T cells. The experiment in a line: Cell proliferation of rat T cells. The conditions noted are these: FIG. 5, read-out: IC50 for inhibition of cell proliferation. In kind it is cell-based.
Data set [8] relates to RBL-2H3 cells. The experiment in a line: TNF-α release assay (ELISA). Particulars: Rattus norvegicus; RBL-2H3 cells induced with TG/TPA; FIG. 3; read-out: IC50 for inhibition of TNF-alpha release. The data set is classed as cell-based. As to the method: as §1

Here are results for one compound from patent US8524765B2, “Compounds that modulate intracellular calcium” (Calcimedica, Inc., priority 2007, dated 2013).

Bounds are passed on as bounds.

T1 sequence (Q96D31 whole entry): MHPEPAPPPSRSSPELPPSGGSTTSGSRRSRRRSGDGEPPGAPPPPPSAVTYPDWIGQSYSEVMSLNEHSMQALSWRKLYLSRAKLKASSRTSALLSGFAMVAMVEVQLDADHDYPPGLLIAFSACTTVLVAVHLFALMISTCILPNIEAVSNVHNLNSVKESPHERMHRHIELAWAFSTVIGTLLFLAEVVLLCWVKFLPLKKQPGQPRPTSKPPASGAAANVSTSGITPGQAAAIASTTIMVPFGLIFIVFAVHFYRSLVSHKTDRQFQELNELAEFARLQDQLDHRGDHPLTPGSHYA
T1 sequence (Q13586 23-685 partner): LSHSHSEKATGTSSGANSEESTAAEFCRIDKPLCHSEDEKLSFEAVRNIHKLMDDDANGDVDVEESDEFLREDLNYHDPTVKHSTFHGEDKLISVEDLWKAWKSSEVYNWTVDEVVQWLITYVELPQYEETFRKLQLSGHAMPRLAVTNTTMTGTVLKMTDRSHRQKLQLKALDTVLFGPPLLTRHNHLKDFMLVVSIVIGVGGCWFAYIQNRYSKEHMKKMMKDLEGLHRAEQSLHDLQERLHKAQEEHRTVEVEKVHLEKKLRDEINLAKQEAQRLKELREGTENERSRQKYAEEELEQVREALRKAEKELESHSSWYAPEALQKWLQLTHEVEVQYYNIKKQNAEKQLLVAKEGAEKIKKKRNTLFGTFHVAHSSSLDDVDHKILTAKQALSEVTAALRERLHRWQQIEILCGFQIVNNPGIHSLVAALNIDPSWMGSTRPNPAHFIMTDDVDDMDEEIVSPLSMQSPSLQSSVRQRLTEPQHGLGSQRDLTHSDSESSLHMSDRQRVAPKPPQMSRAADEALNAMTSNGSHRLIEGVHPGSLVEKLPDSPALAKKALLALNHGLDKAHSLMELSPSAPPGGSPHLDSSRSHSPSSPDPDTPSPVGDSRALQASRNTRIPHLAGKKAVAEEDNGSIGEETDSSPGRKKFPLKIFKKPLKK

A word on the inhibition: it is the relative decrease from the control value, in per cent. For `O=C(Nc1scc(-c2ccc(Br)cc2)c1C(=O)O)c1ccc(F)cc1` [Compound 1, 2-(4-fluorobenzamido)-4-(4-bromophenyl)thiophene-3-carboxylic acid], the IC50 was ~3700 nM with primary human T cells; ~2400 nM with SOCE in rat T cells; 2.2 µM in data set [3] (Rattus norvegicus, Up slope parameter, RBL-2H3 cells); 1000 to 3000 nM in the data set on RBL-2H3 cells [6] (RBL-2H3, 2 hour TG/TPA induction in HBSS+1% serum, 10 minute pretreatment, FIG. 4, read-out: IC50 for inhibition of degranulation, presence of serum); < 300 nM in the data set with RBL-2H3 cells [6] (RBL-2H3, 2 hour TG/TPA induction in HBSS, 10 minute pretreatment, FIG. 4, read-out: apparent IC50 for inhibition of degranulation, absence of serum); 2600 nM with RBL-2H3 cells [6] (RBL-2H3 cells induced with TG/TPA, FIG. 3, read-out: IC50 for inhibition of degranulation). Also, the figures for the IC50 in the data set with rat T cells and with RBL-2H3 cells [8] were ~4300 nM and 3300 nM, respectively. In addition, the “effect on Monster ICRAC” value at hOrail/hSTIM1 [1] is reported as “inhibit”. Besides, the “reduction in liver weight” value in data set [2] is on record as “no liver weight reduction”. Besides, the selectivity profile entry in the data set on SOCE is “selective inhibitor of SOCE”. For the same compound, the “inhibition of the initial kinetics of the CRAC channel response” value in [3] (RBL-2H3 cells, FIG. 2) is reported as “concentration-dependent inhibition”. In addition, the inhibition at 10 µM in [3] (Rattus norvegicus, RBL-2H3, 10 μM, cell line not stated) was > 70%. Further, the “inflammation in the rat ulcerative colitis model for IBD” value in [4] is given as “inhibition of inflammation”. Also, the “effect on recombinant hOrail/hSTIM1-dependent Ca2+ entry” value at hOrail/hSTIM1 [5] is “inhibition”. Besides, the “rejection of skin transplants” value in [7] was “delayed rejection”.
